Patent publication US7057048B2, “Androgen receptor antagonists” (Warner Lambert Company LLC, priority 2003, dated 2006)

Biological target: T1, androgen receptor (Homo sapiens, UniProt P10275)
T1 sequence (P10275 1-920 Q868H): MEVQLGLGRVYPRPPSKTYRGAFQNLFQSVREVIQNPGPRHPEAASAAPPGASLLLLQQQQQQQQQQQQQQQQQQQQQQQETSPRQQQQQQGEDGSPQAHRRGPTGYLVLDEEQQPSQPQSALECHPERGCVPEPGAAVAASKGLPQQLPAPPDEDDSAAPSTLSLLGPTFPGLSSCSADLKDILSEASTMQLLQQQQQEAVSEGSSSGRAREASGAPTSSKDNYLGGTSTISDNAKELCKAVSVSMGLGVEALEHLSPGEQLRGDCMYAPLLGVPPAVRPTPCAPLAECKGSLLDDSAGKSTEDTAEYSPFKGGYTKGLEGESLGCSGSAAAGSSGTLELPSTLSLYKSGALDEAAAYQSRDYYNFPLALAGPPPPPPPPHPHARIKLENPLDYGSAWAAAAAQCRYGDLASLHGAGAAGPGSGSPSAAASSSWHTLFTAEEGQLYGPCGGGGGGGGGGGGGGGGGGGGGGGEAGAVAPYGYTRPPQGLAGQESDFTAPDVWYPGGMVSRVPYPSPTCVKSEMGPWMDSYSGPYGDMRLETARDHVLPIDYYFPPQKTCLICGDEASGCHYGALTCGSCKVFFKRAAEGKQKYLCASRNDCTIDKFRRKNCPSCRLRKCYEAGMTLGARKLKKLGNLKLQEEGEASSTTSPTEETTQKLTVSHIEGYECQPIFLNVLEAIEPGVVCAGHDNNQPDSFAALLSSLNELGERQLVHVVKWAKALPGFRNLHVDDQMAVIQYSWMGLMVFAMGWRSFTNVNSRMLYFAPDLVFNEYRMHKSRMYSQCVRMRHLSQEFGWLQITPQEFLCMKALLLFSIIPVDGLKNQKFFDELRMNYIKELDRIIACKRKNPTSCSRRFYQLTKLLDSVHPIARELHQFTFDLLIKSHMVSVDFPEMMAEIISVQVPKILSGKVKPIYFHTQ
Assay: AR Antagonist Cell Assay (MMTV-luciferase reporter, DHT-stimulated)
Assay type: cell-based
Conditions: MDA-MB453-MMTV clone 54-19 cells, inhibition of induction by 100 pM DHT, 17 hr
Description: The compounds ability to antagonize the effects of androgen on the androgen receptor were determined in the protocol described immediately below.
Experimental Procedure for AR Antagonist Cell Assay
Cell line: MDA-MB453-MMTV clone 54-19. This cell line is a stable transfected cell line with MDA-MB453 cell background (human breast tumor cell expressing high level of androgen receptor). A MMTV minimal promoter containing ARE was first cloned in front of a firefly luciferase reporter gene. Then the cascade was cloned into transfection vector pUV120puro. Electroporation method was used for transfecting MDA-MB-453 cell. Puromycin resistant stable cell line was selected.
Cell Culture Media and Reagents:
Culture medium: DMEM (high glucose, Gibco cat #: 11960-044), 10% FBS, and 1% L-glutamine
Plating medium: DMEM (phenol red free), 10% charcoal treated HyClone serum, 1% L-glutamine
Assay medium: DMEM (phenol red free), 1% charcoal treated HyClone serum, 1% L-glutamine, and 1% penicillin/streptomycin
3×luciferase buffer: 2% beta-mercaptoethanol, 0.6% ATP, 0.0135% luciferine in cell lysis buffer
• 1. Cells are maintained in culture medium, splitting cells when they reach 80–90% confluence • 2. To test compounds, 10,000 cells/well are plated to opaque 96 cell culture plate in 100 ul/well plating medium, culture for overnight at 37° C. in cell culture incubator • 3. Carefully remove plating medium, then add 80 ul/well of pre-warmed assay medium, add 10 ul/well testing compound (final concentration at 10 uM or 1 uM), incubate at 37° C. for 30 minutes • 4. Add 10 ul/well freshly prepared DHT (final concentration at 100 pM) to each well, incubate at 37° C. for 17 hr (overnight) • 5. Add 50 ul/well 3×luciferase buffer, incubate at room temperature for 5 minutes, then count on Luminometer
The fold induction over background by 100 pM DHT in the absence of testing compounds is standardized as 100% and experimental result is expressed as percentage of inhibition by testing compounds.

IC50	Structure (SMILES)
> 10 µM	COc1cc2c(cc1OC)CN(S(=O)(=O)c1ccc(Cc3ccc4[nH]c(=O)cc(C(F)(F)F)c4c3)cc1)CC2 [Example 5, 6-[4-(6,7-Dimethoxy-3,4-dihydro-1H-isoquinoline-2-sulfonyl)benzyl]-4-trifluoromethyl-1H-quinolin-2-one]
> 10 µM	O=c1cc(C(F)(F)F)c2cc(Cc3ccc(S(=O)(=O)N4CCSC4)cc3)ccc2[nH]1 [Example 12, 6-[4-(Thiazolidine-3-sulfonyl)benzyl]-4-trifluoromethyl-1H-quinolin-2-one]
8.9 µM	O=c1cc(C(F)(F)F)c2cc(Cc3ccc(S(=O)(=O)N4CCCCC4c4cccnc4)cc3)ccc2o1 (centres unmarked) [Example 48, 6-[4-(3,4,5,6-Tetrahydro-2H-[2,3′]bipyridinyl-1-sulfonyl)benzyl]-4-trifluoromethylchromen-2-one]
> 10 µM	CCN1CCN(S(=O)(=O)c2ccc(Cc3ccc4[nH]c(=O)cc(C(F)(F)F)c4c3)cc2)CC1 [Example 8, 6-[4-(4-Ethylpiperazine-1-sulfonyl)benzyl]-4-trifluoromethyl-1H-quinolin-2-one]
5.3 µM	O=c1cc(C(F)(F)F)c2cc(Cc3ccc(S(=O)(=O)N4CCCCC4CO)cc3)ccc2o1 (centres unmarked) [Example 37, 6-[4-(2-Hydroxymethyl-piperidine-1-sulfonyl)benzyl]-4-trifluoromethylchromen-2-one]
8.9 µM	O=c1cc(C(F)(F)F)c2cc(Cc3ccc(S(=O)(=O)N4CCN(CCO)CC4)cc3)ccc2o1 [Example 43, 6-{4-[4-(2-Hydroxyethyl)piperazine-1-sulfonyl]benzyl}-4-trifluoromethylchromen-2-one]
> 10 µM	O=c1cc(C(F)(F)F)c2cc(Cc3ccc(S(=O)(=O)N4CCN(CCCN5CCCCC5)CC4)cc3)ccc2o1 [Example 38, 6-{4-[4-(3-Piperidin-1-ylpropyl)piperazine-1-sulfonyl]benzyl}-4-trifluoromethylchromen-2-one]
2 µM	O=c1cc(C(F)(F)F)c2cc(Cc3ccc(S(=O)(=O)N4CCCc5ccccc54)cc3)ccc2[nH]1 [Example 26, 6-[4-(3,4-Dihydro-2H-quinoline-1-sulfonyl)benzyl]-4-trifluoromethyl-1H-quinolin-2-one]
> 10 µM	CCOCCN1CCN(S(=O)(=O)c2ccc(Cc3ccc4oc(=O)cc(C(F)(F)F)c4c3)cc2)CC1 [Example 62, 6-{4-[4-(2-Ethoxyethyl)piperazine-1-sulfonyl]benzyl}-4-trifluoromethylchromen-2-one]
> 10 µM	O=c1cc(C(F)(F)F)c2cc(Cc3ccc(S(=O)(=O)N4CCCC5CCCCC54)cc3)ccc2[nH]1 (centres unmarked) [Example 19, 6-[4-(Octahydroquinoline-1-sulfonyl)benzyl]-4-trifluoromethyl-1H-quinolin-2-one]
> 10 µM	CCOC(=O)C1CCN(S(=O)(=O)c2ccc(Cc3ccc4[nH]c(=O)cc(C(F)(F)F)c4c3)cc2)CC1 [Example 4]
8.6 µM	O=c1cc(C(F)(F)F)c2cc(Cc3ccc(S(=O)(=O)N4CCC(O)(c5cccs5)CC4)cc3)ccc2o1 [Example 33, 6-[4-(4-Hydroxy-4-thiophen-2-ylpiperidine-1-sulfonyl)benzyl]-4-trifluoromethylchromen-2-one]
8 µM	O=c1cc(C(F)(F)F)c2cc(Cc3ccc(S(=O)(=O)N4CCCC4CO)cc3)ccc2[nH]1 (centres unmarked) [Example 18, 6-[4-(2-Hydroxymethylpyrrolidine-1-sulfonyl)benzyl]-4-trifluoromethyl-1H-quinolin-2-one]
> 10 µM	COc1ccc(N2CCN(S(=O)(=O)c3ccc(Cc4ccc5[nH]c(=O)cc(C(F)(F)F)c5c4)cc3)CC2C)cc1 (centres unmarked) [Example 3, 6-{4-[4-(4-Methoxyphenyl)-3-methylpiperazine-1-sulfonyl]benzyl}-4-trifluoromethyl-1H-quinolin-2-one]
9.4 µM	COCCN1CCN(S(=O)(=O)c2ccc(Cc3ccc4oc(=O)cc(C(F)(F)F)c4c3)cc2)CC1 [Example 39, 6-{4-[4-(2-Methoxyethyl)piperazine-1-sulfonyl]benzyl}-4-trifluoromethylchromen-2-one]
> 10 µM	O=c1cc(C(F)(F)F)c2cc(Cc3ccc(S(=O)(=O)N4CCN(CCO)CC4)cc3)ccc2[nH]1 [Example 10, 6-{4-[4-(2-Hydroxyethyl)piperazine-1-sulfonyl]benzyl}-4-trifluoromethyl-1H-quinolin-2-one]
2.5 µM	O=c1cc(C(F)(F)F)c2cc(Cc3ccc(S(=O)(=O)N4CCC(CO)CC4)cc3)ccc2o1 [Example 64, 6-[4-(4-Hydroxymethyl-piperidine-1-sulfonyl)benzyl]-4-trifluoromethylchromen-2-one]
